Test results as given in US9073876B2, “Flap modulators” (JANSSEN PHARMACEUTICA NV, priority 2013, dated 2015).
Structures can show the parent of a compound that is named as a salt.

molecular target: human FLAP (Homo sapiens (Human), UniProt P20292); test: FLAP binding assay (HTRF); conditions: human FLAP-containing membranes, HTRF format; average of two assay plates, duplicates; read-out: FLAP Binding wild type HTRF Ki
Protocol: The ability of the compounds of the present invention to treat a FLAP-mediated disease and/or disorder, or associated symptoms or complications thereof, was determined using the following procedures. Binding assay data represent the average value obtained from two different assay plates, with samples run in duplicate on each plate. Human whole blood assay data represent a single replicate on an assay plate using whole blood from at least one healthy donor.
Data are expressed as a HTRF ratio.

Sequence of human FLAP (P20292 whole entry): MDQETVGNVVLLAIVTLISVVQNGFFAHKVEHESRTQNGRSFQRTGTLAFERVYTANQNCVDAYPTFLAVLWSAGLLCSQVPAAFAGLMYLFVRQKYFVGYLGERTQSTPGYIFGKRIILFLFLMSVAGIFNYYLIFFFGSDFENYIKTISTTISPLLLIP

First: 5-(4-Cyclobutyl-2-fluoro-3- methoxyphenyl)pyridin-2-amine hydrochloride salt [Example 178]
Second: Nc1cnc(-c2ccc(C3CCC3)c(OCC(O)CN3CCC(O)C3)c2F)cn1 (mixture of isomers) [Example 308, diastereomeric mixture 1-{3-[3-(5-Aminopyrazin-2-yl)-6-cyclobutyl-2-fluorophenoxy]-2-hydroxypropyl}pyrrolidin-3-ol]
The Ki of the first is lower: 354 nM for the first, greater than 10000 nM for the second.

First: Nc1cnc(-c2ccc(C3CCC3)c(OCC(O)Cn3ccccc3=O)c2F)cn1 (racemic) [Example 51, racemic 1-(3-(3-(5-Aminopyrazin-2-yl)-6-cyclobutyl-2-fluorophenoxy)-2-hydroxypropyl)pyridin-2(1H)-one]
Second: Nc1cnc(-c2ccc(C3CCC3)c(OCC(O)CO)c2F)cn1 (racemic) [Example 254, 3-(3-(5-Aminopyrazin-2-yl)-6-cyclobutyl-2-fluorophenoxy)propane-1,2-diol]
The Ki of the first is 3.1-fold lower: 324 nM for the first, 992 nM for the second.

`Nc1cnc(-c2ccc(C3CCC3)c(OCC3CCCNC3)c2F)cn1` (racemic) [Example 299, racemic 5-[4-Cyclobutyl-2-fluoro-3-(piperidin-3-ylmethoxy)phenyl]pyrazin-2-amine] and `Nc1cnc(-c2ccc(C3CCC3)c(OCC3CCNC3)c2F)cn1` (racemic) [Example 300, racemic 5-[4-Cyclobutyl-2-fluoro-3-(pyrrolidin-3-ylmethoxy)phenyl]pyrazin-2-amine] cannot be ordered by Ki: greater than 10000 nM for the first, greater than 10000 nM for the second.

`Nc1cnc(-c2ccc(C3CCC3)c(OCC3CCCN3)c2F)cn1` (racemic) [Example 302, racemic 5-[4-Cyclobutyl-2-fluoro-3-(pyrrolidin-2-ylmethoxy)phenyl]pyrazin-2-amine] and `Nc1cnc(-c2ccc(C3CCC3)c(OCC(O)CN3CCCCC3)c2F)cn1` (racemic) [Example 303, racemic 5 1-[3-(5-Aminopyrazin-2-yl)-6-cyclobutyl-2-fluorophenoxy]-3-piperidin-1-ylpropan-2-ol] cannot be ordered by Ki: greater than 10000 nM for the first, greater than 10000 nM for the second.

`CNCC(O)COc1c(C2CCC2)ccc(-c2cnc(N)cn2)c1F` (racemic) [Example 304, racemic 1-[3-(5-Aminopyrazin-2-yl)-6-cyclobutyl-2-fluorophenoxy]-3-(methylamino)propan-2-ol] and `CC(C)NCC(O)COc1c(C2CCC2)ccc(-c2cnc(N)cn2)c1F` (racemic) [Example 305, racemic 1-[3-(5-Aminopyrazin-2-yl)-6-cyclobutyl-2-fluorophenoxy]-3-[(1-methylethyl)amino]propan-2-ol] cannot be ordered by Ki: greater than 10000 nM for the first, greater than 10000 nM for the second.

`Nc1cnc(-c2ccc(C3CCC3)c(OCC(O)CN3CCCC3)c2F)cn1` (racemic) [Example 306, racemic 1-[3-(5-Aminopyrazin-2-yl)-6-cyclobutyl-2-fluorophenoxy]-3-pyrrolidin-1-ylpropan-2-ol] and `CN(C)CC(O)COc1c(C2CCC2)ccc(-c2cnc(N)cn2)c1F` (racemic) [Example 307, racemic 1-[3-(5-Aminopyrazin-2-yl)-6-cyclobutyl-2-fluorophenoxy]-3-(dimethylamino)propan-2-ol] cannot be ordered by Ki: greater than 10000 nM for the first, greater than 10000 nM for the second.

`Nc1cnc(-c2ccc(C3CCC3)c(OCC(O)CN3CCNCC3)c2F)cn1` (racemic) [Example 309, racemic 1-[3-(5-Aminopyrazin-2-yl)-6-cyclobutyl-2-fluorophenoxy]-3-piperazin-1-ylpropan-2-ol] and `Nc1cnc(-c2ccc(C3CCC3)c(OCC(O)Cn3cccnc3=O)c2F)cn1` (racemic) [Example 310, racemic 1-{3-[3-(5-Aminopyrazin-2-yl)-6-cyclobutyl-2-fluorophenoxy]-2-hydroxypropyl}pyrimidin-2(1H)-one] cannot be ordered by Ki: greater than 10000 nM for the first, greater than 10000 nM for the second.

`Nc1cnc(-c2ccc(C3CCC3)c(OCC(O)CN3CCNC3=O)c2F)cn1` (racemic) [Example 312, racemic 1-{3-[3-(5-Aminopyrazin-2-yl)-6-cyclobutyl-2-fluorophenoxy]-2-hydroxypropyl}imidazolidin-2-one] and `Nc1cnc(-c2ccc(C3CCC3)c(OCc3cccc(OC(F)(F)F)c3)c2F)cn1` [Example 9, 5-(4-Cyclobutyl-2-fluoro-3-{[3-(trifluoromethoxy)benzyl]oxy}phenyl)-pyrazin-2-amine] are within 1.5-fold of each other in Ki: 974 nM for the first, 808 nM for the second.

First: Nc1cnc(-c2ccc(C3CCC3)c(OCc3ccc(OC(F)(F)F)cc3)c2F)cn1 [Example 10, 5-(4-Cyclobutyl-2-fluoro-3-{[4-(trifluoromethoxy)benzyl]oxy}phenyl)-pyrazin-2-amine]
Second: Nc1cnc(-c2ccc(C3CCC3)c(OCc3ccc(F)cc3)c2F)cn1 [Example 28, 5-{4-Cyclobutyl-2-fluoro-3-[(4-fluorobenzyl)oxy]phenyl}pyrazin-2-amine]
The Ki of the first is 2.8-fold higher: 866 nM for the first, 304 nM for the second.

`Nc1cnc(-c2ccc(C3CCC3)c(OCc3ccccc3F)c2F)cn1` [Example 30, 5-{4-Cyclobutyl-2-fluoro-3-[(2-fluorobenzyl)oxy]phenyl}pyrazin-2-amine] and `Nc1cnc(-c2ccc(C3CCC3)c(OCc3cccc(F)c3F)c2F)cn1` [Example 32, 5-{4-Cyclobutyl-3-[(2,3-difluorobenzyl)oxy]-2-fluorophenyl}pyrazin-2-amine] are the same in Ki: 354 nM for the first, 354 nM for the second.

Compared with `Nc1cnc(-c2ccc(C3CCC3)c(OCc3ccc(Cl)cc3Cl)c2F)cn1` [Example 40, 5-{4-Cyclobutyl-3-[(2,4-dichlorobenzyl)oxy]-2-fluorophenyl}pyrazin-2-amine], `Nc1cnc(-c2ccc(C3CCC3)c(OCc3cccc(C(F)(F)F)c3Cl)c2F)cn1` [Example 42, 5-(3-{[2-Chloro-3-(trifluoromethyl)benzyl]oxy}-4-cyclobutyl-2-fluorophenyl)pyrazin-2-amine] is 3.3-fold higher in Ki: 612 nM for the first, 2000 nM for the second. The first binds more tightly here.

Going from `Nc1cnc(-c2ccc(C3CCC3)c(OCc3cc(Cl)ccc3C(F)(F)F)c2F)cn1` [Example 43, 5-(3-{[5-Chloro-2-(trifluoromethyl)benzyl]oxy}-4-cyclobutyl-2-fluorophenyl)pyrazin-2-amine] to `Nc1cnc(-c2ccc(C3CCC3)c(OCc3ccc(F)cc3C(F)(F)F)c2F)cn1` [Example 44, 5-(4-Cyclobutyl-2-fluoro-3-{[4-fluoro-2-(trifluoro-methyl)benzyl]oxy}phenyl)pyrazin-2-amine], the Ki rises from 430 nM to 1500 nM (3.5-fold).

Compared with `Nc1cnc(-c2ccc(C3CCC3)c(OCC(=O)O)c2F)cn1` [Example 50, [3-(5-Aminopyrazin-2-yl)-6-cyclobutyl-2-fluorophenoxy]acetic acid], `Nc1cnc(-c2ccc(C3CCC3)c(OCC3CCCCC3)c2F)cn1` [Example 71, 5-[4-Cyclobutyl-3-(cyclohexylmethoxy)-2-fluorophenyl]pyrazin-2-amine] is 2.4-fold lower in Ki: 1500 nM for the first, 620 nM for the second. The second binds more tightly here.

`Cc1noc(COc2c(C3CCC3)ccc(-c3cnc(N)cn3)c2F)n1` [Example 75, 5-{4-Cyclobutyl-2-fluoro-3-[(3-methyl-1,2,4-oxadiazol-5-yl)methoxy]phenyl}pyrazin-2-amine] and `Nc1cnc(-c2ccc(C3CCC3)c(OCc3ccccc3S(F)(F)(F)(F)F)c2F)cn1` [Example 81, 5-(4-Cyclobutyl-2-fluoro-3-{[2-(pentafluoro-lambda~6~- sulfanyl)benzyl]oxy}phenyl)pyrazin-2-amine] are within 1.5-fold of each other in Ki: 370 nM for the first, 394 nM for the second.

`Nc1cnc(-c2ccc(C3CCC3)c(OCC3CCC3)c2F)cn1` [Example 82, 5-[4-Cyclobutyl-3-(cyclobutylmethoxy)-2-fluorophenyl]pyrazin-2-amine] and `Nc1cnc(-c2ccc(C3CCC3)c(Oc3cnc(C(F)(F)F)cn3)c2F)cn1` [Example 105, 5-(4-Cyclobutyl-2-fluoro-3-{[5-(trifluoromethyl)pyrazin-2-yl]oxy}phenyl)pyrazin-2-amine] are within 1.5-fold of each other in Ki: 304 nM for the first, 250 nM for the second.

Going from `CS(=O)(=O)c1ccccc1Oc1c(C2CCC2)ccc(-c2cnc(N)cn2)c1F` [Example 117, 5-{4-Cyclobutyl-2-fluoro-3-[2-(methylsulfonyl)phenoxy]phenyl}pyrazin-2-amine] to `Nc1cnc(-c2ccc(C3CCC3)c(Oc3ccc(C(F)(F)F)c(C(F)(F)F)c3)c2F)cn1` [Example 120, 5-{3-[3,4-Bis(trifluoromethyl)phenoxy]-4-cyclobutyl-2-fluorophenyl}pyrazin-2-amine], the Ki falls from 2500 nM to 304 nM (8.2-fold).

`Nc1cnc(-c2ccc(C3CCC3)c(Oc3ncccc3C(F)(F)F)c2F)cn1` [Example 121, 5-(4-Cyclobutyl-2-fluoro-3-{[3-(trifluoromethyl)pyridin-2-yl]oxy}phenyl)pyrazin-2-amine] and `Nc1cnc(-c2ccc(C3CCC3)c(Oc3cc(C(F)(F)F)ncn3)c2F)cn1` [Example 125, 5-(4-Cyclobutyl-2-fluoro-3-{[6-(trifluoromethyl)pyrimidin-4-yl]oxy}phenyl)pyrazin-2-amine] are the same in Ki: 250 nM for the first, 250 nM for the second.

Compared with `CS(=O)(=O)c1ccc(Oc2c(C3CCC3)ccc(-c3cnc(N)cn3)c2F)c(C(F)(F)F)c1` [Example 127, 5-(4-cyclobutyl-2-fluoro-3-(4-(methylsulfonyl)-2-(trifluoro-methyl)phenoxy)phenyl)pyrazin-2-amine], `Nc1cnc(-c2ccc(C3CCC3)c(Oc3ccc(C(F)(F)F)nc3)c2F)cn1` [Example 128, 5-(4-Cyclobutyl-2-fluoro-3-{[6-(trifluoromethyl)pyridin-3-yl]oxy}phenyl)pyrazin-2-amine] is 7.4-fold lower in Ki: 2200 nM for the first, 297 nM for the second. The second binds more tightly here.

Compared with `Cn1nc(Oc2c(C3CCC3)ccc(-c3cnc(N)cn3)c2F)c(C#N)c1C(F)(F)F` [Example 148, 3-[3-(5-Aminopyrazin-2-yl)-6-cyclobutyl-2-fluorophenoxy]-1-methyl-5-(trifluoromethyl)-1H-pyrazole-4-carbonitrile], `CN(C)CCNc1nccc(Oc2c(C3CCC3)ccc(-c3cnc(N)cn3)c2F)n1` [Example 156, N′-{4-[3-(5-Aminopyrazin-2-yl)-6-cyclobutyl-2-fluorophenoxy]pyrimidin-2-yl}-N,N-dimethylethane-1,2-diamine hydrochloride] is 22-fold higher in Ki: 101 nM for the first, 2240 nM for the second. The first binds more tightly here.

Work on `N#Cc1nc(N)cnc1-c1ccc(C2CCC2)c(O)c1F` [Example 173, 6-amino-3-(4-cyclobutyl-2-fluoro-3-hydroxyphenyl)pyrazine-2-carbonitrile] yielded a Ki of 682 nM.
